Results from PubChem BioAssay AID720589 (Broad Institute, 2013).
Active and inactive are the calls of the source.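 The calls were made as follows: active = fitted curve drops below -35% activity at a concentration within twice the top valid tested dose; inconclusive = no clear call, values can overlap the other calls; inactive = signal rising instead of falling, among other cases.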

assay: ATP-based viability loss in HepG2 cells – cell-based, CellTiter-Glo luminescence, cherry-pick, set 3, cytotoxicity control, dose response (AID 720589); conditions: HepG2 viability, ATP luminescence (CellTiter-Glo), 72 h; at 0.011 µM; stronger effect = lower value; 0% = untreated, negative = ATP loss

Compound | max activity
COc1ccc2oc(C(=O)NCCc3ccccc3)c(C)c2c1 | -16.8% (inactive)
COc1ccccc1/C=C1\SC(=S)N(CCC(=O)Nc2cc(C)on2)C1=O | -26.3% (inactive)
Cc1ccsc1C(=O)OCC(=O)NCCC1=CCCCC1 | -13% (inactive)
CC(=NNc1ccc2ccccc2n1)c1ccccc1O | -35.4% (inactive)
COc1ccc(C(=O)Nc2cccc(C(=O)N/N=C/c3ccc(OC)cc3OC)c2)cc1 | 23.8% (inactive)
CCOc1ccc(-c2noc(CCC(=O)O)n2)cc1 | 7.93% (inactive)
N/C(Cc1nc(-c2ccc(F)cc2)cs1)=N\O | 20.4% (inactive)
N#C[C@@H]1[C@H](c2ccc(C#Cc3ccc(F)cc3)cc2)[C@@H](CO)N1C(=O)Nc1ccc(F)cc1 | -24.6% (inactive)
COc1cc(C(c2c(C)[nH][nH]c2=O)c2c(C)[nH][nH]c2=O)ccc1OC(C)C | 22.1% (inactive)
CCCCNC(=O)C(c1ccc(OCC(=O)OC)c(C(=O)OC)c1)N(CCOC)C(=O)CCCCCN1C(=O)NC(c2ccc(-c3ccccc3)cc2)C(C(=O)OCc2ccccc2)=C1C (configuration not stated) | 32.5% (inactive)
Cc1csc(NC(=O)CCc2c(C)nc3cc(-c4ccc(Cl)cc4)nn3c2C)n1 | 11.5% (inactive)
Cc1ccc(N=C2NC(=O)/C(=C\c3cccs3)S2)cc1C | -17.8% (inactive)

same assay, conditions: HepG2 viability, ATP luminescence (CellTiter-Glo), 72 h; at 0.012 µM; stronger effect = lower value; 0% = untreated, negative = ATP loss

Compound | max activity
N#C[C@@H]1[C@H](c2ccc(C#Cc3cccc(F)c3)cc2)[C@@H](CO)N1C(=O)C1CCCC1 | 24% (inactive)
CN(C)C(=O)c1ccc(-c2ccccc2[C@@H]2[C@@H](CO)N(C(=O)C3CC3)[C@H]2C#N)cc1 | 20.5% (inactive)

same assay, conditions: HepG2 viability, ATP luminescence (CellTiter-Glo), 72 h; at 0.035 µM; stronger effect = lower value; 0% = untreated, negative = ATP loss

Compound | max activity
Cc1ccc(C(=O)CN2C(=O)c3ccccc3S2(=O)=O)cc1 | 23.9% (inactive)
COc1ccc(C2=Nn3c(nnc3-c3ccccc3OC)SC2)cc1OCC1CC1 | -29% (inactive)
COc1ccc(S(=O)(=O)N2CC[C@@H]3[C@@H](CO)Nc4ccc(-c5ccc(C#N)cc5)cc4[C@@H]32)cc1 | -30.2% (inactive)
COc1ccc(S(=O)(=O)N2CC[C@@H]3[C@H](CO)Nc4ccc(-c5ccc(C#N)cc5)cc4[C@@H]32)cc1 | -30.4% (inactive)
O=C(CCCN1C(=O)/C(=C/c2ccccc2Cl)SC1=S)NNC(=O)c1ccc(Cl)cc1Cl | -21.5% (inactive)

same assay, conditions: HepG2 viability, ATP luminescence (CellTiter-Glo), 72 h; at 0.1 µM; stronger effect = lower value; 0% = untreated, negative = ATP loss

Compound | max activity
CCC(C)Cn1c(O)cc2nn(-c3nc4ccccc4s3)c(=O)c-2c1C (configuration not stated) | -32.2% (inactive)
Cc1ccsc1C(=O)OCC(=O)c1cc(C)n(C)c1C | 9.16% (inactive)
Cc1cc(Br)ccc1N=C1C(=O)Nc2ccccc21 | -28.8% (inactive)
CCn1c(C)cc(C(=O)CN2C(=O)c3ccccc3S2(=O)=O)c1C | -11.5% (inactive)
C[C@H](CO)N1C[C@H](C)[C@H](CN(C)Cc2ccc(C(F)(F)F)cc2)Oc2c(NS(=O)(=O)c3ccc(Cl)cc3)cccc2C1=O | -20% (inactive)
CC(=O)c1ccc(N=C2C(=O)Nc3ccccc32)cc1 | -37.4% (inactive)
O=C1Nc2ccccc2C1=Nc1ccccc1-c1ccccc1 | 10.3% (inactive)
COc1cccc(Sc2ccccc2/C=N/NC(N)=O)c1 | -25.8% (inactive)

same assay, conditions: HepG2 viability, ATP luminescence (CellTiter-Glo), 72 h; at 0.3 µM; stronger effect = lower value; 0% = untreated, negative = ATP loss

Compound | max activity
COC(=O)C[C@@H]1CC[C@@H]2[C@H](COc3ccc(NC(=O)c4cc(C)on4)cc3C(=O)N2C)O1 | -20% (inactive)
COc1ccc(CN(C)c2ncnc3sccc23)c(OC)c1OC | -16.5% (inactive)
COC(=O)C[C@H]1CC[C@H]2[C@@H](COc3ccc(NC(=O)Nc4cccc(Cl)c4)cc3C(=O)N2C)O1 | -27.3% (inactive)
C[C@H](CO)N1C[C@H](C)[C@@H](CN(C)Cc2ccc(C(F)(F)F)cc2)OCCCC[C@H](C)Oc2ccc(NS(=O)(=O)c3ccc(F)cc3)cc2C1=O | 27.5% (inactive)
Nc1ccc(Oc2ccccc2-c2ccccc2)cc1 | -37% (inactive)
O=C(CNC(=O)Cc1ccccc1)N=Nc1c(O)n(Cc2ccc3c(c2)OCO3)c2ccccc12 | -28.9% (inactive)
N#C[C@H]1[C@H](c2ccc(-c3ccccc3F)cc2)[C@@H](CO)N1C(=O)Cc1ccccc1 | -22.2% (inactive)
C[C@H]1CN([C@@H](C)CO)S(=O)(=O)c2ccc(C#Cc3ccncc3)cc2O[C@@H]1CN(C)S(=O)(=O)c1ccccc1 | -9.66% (inactive)

same assay, conditions: HepG2 viability, ATP luminescence (CellTiter-Glo), 72 h; at 0.9 µM; stronger effect = lower value; 0% = untreated, negative = ATP loss

Compound | max activity
COC(=O)C[C@@H]1CC[C@@H]2[C@H](COc3ccc(NC(=O)Nc4ccc(C#N)cc4)cc3C(=O)N2C)O1 | -48.5% (inactive)
CCc1ccc(Cn2ncc3c(C(=O)O)cc(C)nc32)cc1 | -27.2% (inactive)

same assay, conditions: HepG2 viability, ATP luminescence (CellTiter-Glo), 72 h; at 2.85 µM; stronger effect = lower value; 0% = untreated, negative = ATP loss

Compound | max activity
CC(C)Oc1ccc(Br)cc1C(=O)N/N=C/c1c[nH]c2ccccc12 | -17% (inactive)
O=c1[nH]c(=O)n([C@H]2C[C@H](O)[C@@H](CO)O2)cc1F | -50.3% (inactive)
CCOc1ccc(-c2cc(CCCC(=O)NCc3ccc(C)cc3)no2)cc1 | -24.4% (inactive)
C(=N\Nc1ccc2ccccc2n1)/c1ccc2c(c1)OCO2 | -36.5% (inactive)
COc1ccc(OC)c(-c2nnc3n2N=C(c2ccc(OC)c(OC4CCOC4)c2)CS3)c1 (configuration not stated) | -28.2% (inactive)
CN(C)c1ccc(N=Nc2ccccc2Br)cc1 | -41.2% (inactive)
Cc1ccc2c(c1)C(=O)N1[C@H]3c4cc(Br)ccc4OC[C@@H]3[C@H](c3ccccc3)[C@]1(C)C(=O)N2 | -19.3% (inactive)
COc1ccc(-c2cnc3c(NC=O)cc(-c4ccccc4OC)cn23)cc1OC | -32.9% (inactive)
COc1ccc(C(=O)NCCNc2nc3cc(C)cc(C)c3cc2C#N)c(OC)c1 | -25.6% (inactive)

same assay, conditions: HepG2 viability, ATP luminescence (CellTiter-Glo), 72 h; at 8 µM; stronger effect = lower value; 0% = untreated, negative = ATP loss

Compound | max activity
CC(=O)c1ccc(N(C(=O)Cn2nnc3ccccc32)C(C(=O)NCc2ccccc2)c2ccccn2)cc1 (configuration not stated) | -38% (inactive)
CN(C)Cc1c(O)ccc2c1O/C(=C\C=C\c1ccccc1)C2=O | -26.2% (inactive)
CCc1ccc(/C=C2\SC(=S)N(CCCC(=O)NC3=NCCS3)C2=O)cc1 | -19% (inactive)
C[C@@H]1CN([C@@H](C)CO)C(=O)c2cccc(NC(=O)Nc3cccc4ccccc34)c2O[C@@H]1CN(C)Cc1ccc(C(=O)Nc2ccccc2N)cc1 | -36.9% (inactive)
COc1ccc(N=C(NN)c2ccc3ccccc3n2)cc1 | -15.2% (inactive)

same assay, conditions: HepG2 viability, ATP luminescence (CellTiter-Glo), 72 h; at 21 µM; stronger effect = lower value; 0% = untreated, negative = ATP loss

Compound | max activity
COc1ccc(CN(C)C[C@H]2Oc3ccc(NC(=O)CCCCCC(=O)Nc4ccccc4N)cc3CC(=O)N([C@H](C)CO)C[C@H]2C)cc1 | -31.8% (inactive)

same assay, conditions: HepG2 viability, ATP luminescence (CellTiter-Glo), 72 h; at 23.5 µM; stronger effect = lower value; 0% = untreated, negative = ATP loss

Compound | max activity
O=S(=O)(c1ccc(F)cc1)N1C[C@H]2[C@@H](c3ccccc31)[C@H](CO)N2Cc1ccccc1Cl | -21.9% (inactive)

same assay, conditions: HepG2 viability, ATP luminescence (CellTiter-Glo), 72 h; at 26 µM; stronger effect = lower value; 0% = untreated, negative = ATP loss

Compound | max activity
COc1ccc(Cl)cc1S(=O)(=O)Nc1ccc2c(c1)n(C)c(=O)n2C | -15.6% (inactive)
CCOc1ccc(N=Nc2ccc(O)c3ncccc23)cc1 | -26.7% (inactive)
C=CCOc1ccccc1C(=O)/C=C1/C(=O)Nc2ccccc21 | -31.5% (inactive)
Cc1ccc(N2C(=O)c3cccc4c(N)ccc(c34)C2=O)c2cccnc12 | -20.7% (inactive)
CC(NC(=O)c1ccco1)c1nc(-c2ccc(C(C)(C)C)cc2)no1 (configuration not stated) | -24.1% (inactive)
Cc1ccc2nc(-c3ccccc3)nn2c1 | -45.7% (inactive)
Cc1cccc(NC(=O)CN2CCN(C(=O)CNC(=O)c3ccc(-c4ccccc4)cc3)CC2)c1C | -36.3% (inactive)
CCOc1ccc(C(c2c(NC(=O)c3ccccc3)sc(C)c2C)N2CCN(CCO)CC2)cc1 (configuration not stated) | -11.9% (inactive)
Cc1ccc(C(CC(=O)O)Nc2nc(N3CCOCC3)nc(N3CCOCC3)n2)cc1 (configuration not stated) | 36.9% (inactive)
Cc1ccc2oc(/N=C(\N)NC(=O)C(C)(C)C)nc2c1 | -11.8% (inactive)
N#CC1=C(N)Oc2cc(N)ccc2C1c1cccc(Br)c1 (configuration not stated) | -27% (inactive)
Cc1ccsc1/C=N/Nc1ccc(C(=O)O)cc1 | -27.6% (inactive)
Cc1nn(-c2ccc(F)cc2)c2nc(N)c(C#N)c(-c3ccc(O)c(O)c3)c12 | -39.7% (inactive)
CC(C)(C)c1ccc(Oc2ccc(NC(=O)C3CC=CCC3C(=O)O)cc2)cc1 (configuration not stated) | 17.4% (inactive)
CCCN(C)C[C@H]1Oc2ncc(-c3ccccc3)cc2C(=O)N([C@@H](C)CO)C[C@H]1C | 18.2% (inactive)
Cc1ccccc1S(=O)(=O)N1CC[C@@H]2[C@@H](CO)Nc3ccc(-c4ccc(C#N)cc4)cc3[C@@H]21 | -21.8% (inactive)
CCCC[C@@H]1Cc2[nH][nH]c(=O)c2[C@H](c2ccc3ccccc3c2)O1 | 22% (inactive)
CC1(CCc2ccccc2)NC(=O)N(CC(=O)N2CC(=O)Nc3ccccc32)C1=O (configuration not stated) | -19.7% (inactive)
CC1=NN(c2ccccc2)C(=O)/C1=C\C=C\c1ccccc1 | -54.8% (inactive)
O=c1c(Cl)cc(Cl)nn1-c1ccccc1 | -34.4% (inactive)
C(=Cc1cnc2ccccc2n1)c1ccc2c(c1)OCO2 | -50.5% (inactive)
O=C(CN1C(=O)c2ccccc2S1(=O)=O)c1ccc(F)cc1 | 20.9% (inactive)
COc1cccc(OC)c1C(=O)Nc1cc(C)nn1-c1nc2ccccc2[nH]1 | -39.9% (inactive)
COc1cc(OC)cc(-c2cc3nc(C)c(CCC(=O)O)c(C)n3n2)c1 | -9.81% (inactive)
